Experimental findings from EP4603506A1, “NOVEL GLP-1 RECEPTOR ANTAGONIST, AND PHARMACEUTICAL COMPOSITION FOR PREVENTING OR TREATING CONGENITAL […] OR HYPOGLYCEMIA, COMPRISING SAME” (Hanmi Pharm. Co., Ltd., priority 2022, dated 2024) are described below.

Sequences and labels used below:
B1: acylated GLP-1R antagonist analog conjugate (SEQ ID NO: 18) (peptide)
peptide: Ac-DVSSYLEEEAVRLFIAWLVKGGPSSGAPPPSK([AEEA-AEEA-γGlu-C18 diacid])-NH2
SMILES: CC[C@H](C)[C@H](NC(=O)[C@H](Cc1ccccc1)NC(=O)[C@H](CC(C)C)NC(=O)[C@H](CCCNC(=N)N)NC(=O)[C@@H](NC(=O)[C@H](C)NC(=O)[C@H](CCC(=O)O)NC(=O)[C@H](CCC(=O)O)NC(=O)[C@H](CCC(=O)O)NC(=O)[C@H](CC(C)C)NC(=O)[C@H](Cc1ccc(O)cc1)NC(=O)[C@H](CO)NC(=O)[C@H](CO)NC(=O)[C@@H](NC(=O)[C@H](CC(=O)O)NC(C)=O)C(C)C)C(C)C)C(=O)N[C@@H](C)C(=O)N[C@@H](Cc1c[nH]c2ccccc12)C(=O)N[C@@H](CC(C)C)C(=O)N[C@H](C(=O)N[C@@H](CCCCN)C(=O)NCC(=O)NCC(=O)N1CCC[C@H]1C(=O)N[C@@H](CO)C(=O)N[C@@H](CO)C(=O)NCC(=O)N[C@@H](C)C(=O)N1CCC[C@H]1C(=O)N1CCC[C@H]1C(=O)N1CCC[C@H]1C(=O)N[C@@H](CO)C(=O)N[C@@H](CCCCNC(=O)COCCOCCNC(=O)COCCOCCNC(=O)CC[C@H](NC(=O)CCCCCCCCCCCCCCCCC(=O)O)C(=O)O)C(N)=O)C(C)C
B2: acylated GLP-1R antagonist analog conjugate (SEQ ID NO: 20) (peptide)
peptide: Ac-DVSSYLEEEAVRLFIAWLVKGGPSSGAPPPSK([AEEA-AEEA-γGlu-C20 diacid])-NH2
SMILES: CC[C@H](C)[C@H](NC(=O)[C@H](Cc1ccccc1)NC(=O)[C@H](CC(C)C)NC(=O)[C@H](CCCNC(=N)N)NC(=O)[C@@H](NC(=O)[C@H](C)NC(=O)[C@H](CCC(=O)O)NC(=O)[C@H](CCC(=O)O)NC(=O)[C@H](CCC(=O)O)NC(=O)[C@H](CC(C)C)NC(=O)[C@H](Cc1ccc(O)cc1)NC(=O)[C@H](CO)NC(=O)[C@H](CO)NC(=O)[C@@H](NC(=O)[C@H](CC(=O)O)NC(C)=O)C(C)C)C(C)C)C(=O)N[C@@H](C)C(=O)N[C@@H](Cc1c[nH]c2ccccc12)C(=O)N[C@@H](CC(C)C)C(=O)N[C@H](C(=O)N[C@@H](CCCCN)C(=O)NCC(=O)NCC(=O)N1CCC[C@H]1C(=O)N[C@@H](CO)C(=O)N[C@@H](CO)C(=O)NCC(=O)N[C@@H](C)C(=O)N1CCC[C@H]1C(=O)N1CCC[C@H]1C(=O)N1CCC[C@H]1C(=O)N[C@@H](CO)C(=O)N[C@@H](CCCCNC(=O)COCCOCCNC(=O)COCCOCCNC(=O)CC[C@H](NC(=O)CCCCCCCCCCCCCCCCCCC(=O)O)C(=O)O)C(N)=O)C(C)C

Starred links: 1 amine or outer side, 2 acyl side, 3 side chain; linkers in the order of their positions; H or OH if unused. Residues, ends and D or L forms follow the SMILES beside them. Groups on a side chain read outwards from the residue. *: point of attachment. C20 diacid = O=C(O)CCCCCCCCCCCCCCCCCCC(=O)*; C18 diacid = O=C(O)CCCCCCCCCCCCCCCCC(=O)*; γGlu = O=C(O)[C@H](CCC(=O)[*:2])N[*:1]; AEEA = NCCOCCOCC(=O)O

The target in one assay is human GLP-1R (hGLP-1R) (Homo sapiens, UniProt P43220). Description: In vitro cell activity: cAMP inhibition (LANCE Ultra cAMP kit) in CHO cells expressing human GLP-1R, with GLP-1 added. Particulars: relative activity from IC50 of cAMP inhibition; 0.1 nM GLP-1 added; comparative substance exendin-3 (9-39) amide = 100. It counts as cell-based. The method, then: The human GLP-1R-expressed CHO cells were cultured in a 384-well plate for 24 hours. Thereafter, the culture was removed, and 10 µL of each serially diluted substance was added to the plate, followed by incubation at room temperature for 30 minutes. Then, 5 µL of Eu-cAMP tracer was added, and then 5 µL of a buffer containing cAMP antibodies was added, followed by incubation at room temperature for 60 minutes. […]
Chain of human GLP-1R (hGLP-1R) (P43220 24-463): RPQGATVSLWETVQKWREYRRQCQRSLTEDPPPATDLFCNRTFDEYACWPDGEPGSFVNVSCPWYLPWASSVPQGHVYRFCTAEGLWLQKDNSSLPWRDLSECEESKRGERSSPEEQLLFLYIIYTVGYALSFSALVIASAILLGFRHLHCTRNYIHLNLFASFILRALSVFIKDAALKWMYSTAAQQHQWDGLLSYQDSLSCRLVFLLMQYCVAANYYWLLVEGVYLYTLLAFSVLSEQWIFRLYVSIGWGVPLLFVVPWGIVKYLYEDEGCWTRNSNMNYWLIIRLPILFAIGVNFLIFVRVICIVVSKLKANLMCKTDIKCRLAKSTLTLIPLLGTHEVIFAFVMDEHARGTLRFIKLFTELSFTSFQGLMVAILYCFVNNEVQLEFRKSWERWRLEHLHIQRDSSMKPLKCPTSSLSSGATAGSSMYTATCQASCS
For `CC[C@H](C)[C@H](NC(=O)[C@H](Cc1ccccc1)NC(=O)[C@H](CC(C)C)NC(=O)[C@H](CCCNC(=N)N)NC(=O)[C@@H](NC(=O)[C@H](C)NC(=O)[C@H](CCC(=O)O)NC(=O)[C@H](CCC(=O)O)NC(=O)[C@H](CCC(=O)O)NC(=O)[C@H](CC(C)C)NC(=O)[C@H](Cc1ccc(O)cc1)NC(=O)[C@H](CO)NC(=O)[C@H](CO)NC(=O)[C@@H](NC(=O)[C@H](CC(=O)O)NC(=O)[C@H](CO)NC(=O)[C@@H](NC(C)=O)[C@@H](C)O)C(C)C)C(C)C)C(=O)N[C@@H](C)C(=O)N[C@@H](Cc1c[nH]c2ccccc12)C(=O)N[C@@H](CC(C)C)C(=O)N[C@H](C(=O)N[C@@H](CCCCN)C(=O)NCC(=O)NCC(=O)N1CCC[C@H]1C(=O)N[C@@H](CO)C(=O)N[C@@H](CO)C(=O)NCC(=O)N[C@@H](C)C(=O)N1CCC[C@H]1C(=O)N1CCC[C@H]1C(=O)N1CCC[C@H]1C(=O)N[C@@H](CO)C(N)=O)C(C)C` [SEQ ID NO: 7] (Ac-TSDVSSYLEEEAVRLFIAWLVKGGPSSGAPPPS-NH2), the “In vitro activity compared with comparative substance (%)” value was found to be 195.5%.
Same read-out and setting: under `CC[C@H](C)[C@H](NC(=O)[C@H](Cc1ccccc1)NC(=O)[C@H](CC(C)C)NC(=O)[C@H](CCCNC(=N)N)NC(=O)[C@@H](NC(=O)[C@H](C)NC(=O)[C@H](CCC(=O)O)NC(=O)[C@H](CCC(=O)O)NC(=O)[C@H](CCC(=O)O)NC(=O)[C@H](CC(C)C)NC(=O)[C@H](Cc1ccc(O)cc1)NC(=O)[C@H](CO)NC(=O)[C@H](CO)NC(=O)[C@@H](NC(=O)[C@H](CC(=O)O)NC(C)=O)C(C)C)C(C)C)C(=O)N[C@@H](C)C(=O)N[C@@H](Cc1c[nH]c2ccccc12)C(=O)N[C@@H](CC(C)C)C(=O)N[C@H](C(=O)N[C@@H](CCCCN)C(=O)NCC(=O)NCC(=O)N1CCC[C@H]1C(=O)N[C@@H](CO)C(=O)N[C@@H](CO)C(=O)NCC(=O)N[C@@H](C)C(=O)N1CCC[C@H]1C(=O)N1CCC[C@H]1C(=O)N1CCC[C@H]1C(=O)N[C@@H](CO)C(N)=O)C(C)C` [SEQ ID NO: 8] (Ac-DVSSYLEEEAVRLFIAWLVKGGPSSGAPPPS-NH2) stands 238.5%.
Same read-out and setting: under `CC[C@H](C)[C@H](NC(=O)[C@H](Cc1ccccc1)NC(=O)[C@H](CC(C)C)NC(=O)[C@H](CCCNC(=N)N)NC(=O)[C@@H](NC(=O)[C@H](C)NC(=O)[C@H](CCC(=O)O)NC(=O)[C@H](CCC(=O)O)NC(=O)[C@H](CCC(=O)O)NC(=O)[C@H](CC(C)C)NC(=O)[C@H](Cc1ccc(O)cc1)NC(=O)[C@H](CO)NC(=O)[C@H](CO)NC(=O)[C@@H](NC(=O)[C@H](CC(=O)O)NC(C)=O)C(C)C)C(C)C)C(=O)N[C@@H](C)C(=O)N[C@@H](Cc1c[nH]c2ccccc12)C(=O)N[C@@H](CC(C)C)C(=O)N[C@H](C(=O)N[C@@H](CCCCNC(=O)COCCOCCNC(=O)COCCOCCNC(=O)CC[C@H](NC(=O)CCCCCCCCCCCCCCCCC(=O)O)C(=O)O)C(=O)NCC(=O)NCC(=O)N1CCC[C@H]1C(=O)N[C@@H](CO)C(=O)N[C@@H](CO)C(=O)NCC(=O)N[C@@H](C)C(=O)N1CCC[C@H]1C(=O)N1CCC[C@H]1C(=O)N1CCC[C@H]1C(=O)N[C@@H](CO)C(N)=O)C(C)C` [SEQ ID NO: 15] stands 14.3%; under `CC[C@H](C)[C@H](NC(=O)[C@H](Cc1ccccc1)NC(=O)[C@H](CC(C)C)NC(=O)[C@H](CCCNC(=N)N)NC(=O)[C@H](C)NC(=O)[C@H](C)NC(=O)[C@H](CCC(=O)O)NC(=O)[C@H](CCC(=O)O)NC(=O)[C@H](CCC(=O)O)NC(=O)[C@H](CC(C)C)NC(=O)[C@H](Cc1ccc(O)cc1)NC(=O)[C@H](CO)NC(=O)[C@H](CO)NC(=O)[C@@H](NC(=O)[C@H](CC(=O)O)NC(C)=O)C(C)C)C(=O)N[C@@H](C)C(=O)N[C@@H](Cc1c[nH]c2ccccc12)C(=O)N[C@@H](CC(C)C)C(=O)N[C@H](C(=O)N[C@@H](CCCCNC(=O)COCCOCCNC(=O)COCCOCCNC(=O)CC[C@H](NC(=O)CCCCCCCCCCCCCCCCC(=O)O)C(=O)O)C(=O)NCC(=O)NCC(=O)N1CCC[C@H]1C(=O)N[C@@H](CO)C(=O)N[C@@H](CO)C(=O)NCC(=O)N[C@@H](C)C(=O)N1CCC[C@H]1C(=O)N1CCC[C@H]1C(=O)N1CCC[C@H]1C(=O)N[C@@H](CO)C(N)=O)C(C)C` [SEQ ID NO: 16], 13.5%; under `CC[C@H](C)[C@H](NC(=O)[C@H](Cc1ccccc1)NC(=O)[C@H](CC(C)C)NC(=O)[C@H](CCCNC(=N)N)NC(=O)[C@@H](NC(=O)[C@H](C)NC(=O)[C@H](CCC(=O)O)NC(=O)[C@H](CCC(=O)O)NC(=O)[C@H](CCC(=O)O)NC(=O)[C@H](CC(C)C)NC(=O)[C@H](Cc1ccc(O)cc1)NC(=O)[C@H](CO)NC(=O)[C@H](CO)NC(=O)[C@@H](NC(=O)[C@H](CC(=O)O)NC(C)=O)C(C)C)C(C)C)C(=O)N[C@@H](C)C(=O)N[C@@H](Cc1c[nH]c2ccccc12)C(=O)N[C@@H](CC(C)C)C(=O)N[C@H](C(=O)N[C@@H](CCCCN)C(=O)NCC(=O)NCC(=O)N1CCC[C@H]1C(=O)N[C@@H](CO)C(=O)N[C@@H](CO)C(=O)NCC(=O)N[C@@H](C)C(=O)N1CCC[C@H]1C(=O)N1CCC[C@H]1C(=O)N1CCC[C@H]1C(=O)N[C@@H](CO)C(=O)N[C@@H](CS)C(N)=O)C(C)C` [SEQ ID NO: 12] (Ac-DVSSYLEEEAVRLFIAWLVKGGPSSGAPPPSC-NH2), 189.3%.
Consider `CC[C@H](C)[C@H](NC(=O)[C@H](Cc1ccccc1)NC(=O)[C@H](CC(C)C)NC(=O)[C@H](CCCNC(=N)N)NC(=O)[C@@H](NC(=O)[C@H](C)NC(=O)[C@H](CCC(=O)O)NC(=O)[C@H](CCC(=O)O)NC(=O)[C@H](CCC(=O)O)NC(=O)[C@H](CC(C)C)NC(=O)[C@H](Cc1ccc(O)cc1)NC(=O)[C@H](CO)NC(=O)[C@H](CO)NC(=O)[C@@H](NC(=O)[C@H](CC(=O)O)NC(C)=O)C(C)C)C(C)C)C(=O)N[C@@H](C)C(=O)N[C@@H](Cc1c[nH]c2ccccc12)C(=O)N[C@@H](CC(C)C)C(=O)N[C@H](C(=O)N[C@@H](CCCCN)C(=O)NCC(=O)NCC(=O)N1CCC[C@H]1C(=O)N[C@@H](CO)C(=O)N[C@@H](CO)C(=O)NCC(=O)N[C@@H](C)C(=O)N1CCC[C@H]1C(=O)N1CCC[C@H]1C(=O)N1CCC[C@H]1C(=O)N[C@@H](CO)C(=O)N[C@@H](CCCCNC(=O)COCCOCCNC(=O)COCCOCCNC(=O)CC[C@H](NC(=O)CCCCCCCCCCCCCCCCC(=O)O)C(=O)O)C(N)=O)C(C)C` [SEQ ID NO: 18] (Ac-DVSSYLEEEAVRLFIAWLVKGGPSSGAPPPSK([AEEA-AEEA-γGlu-C18 diacid])-NH2), for which the “In vitro activity compared with comparative substance (%)” value is reported as 19.8%.

The target of a further assay is human GLP-1 receptor (GLP-1R) (human, UniProt P43220 24-463). In words: cell-based or functional assay.
Conditions: not given
On to Ac-TSDVSSYLEEEAVRLFIAWLVKGGPSSGAPPPS-NH2 [GLP-1R antagonist analog (SEQ ID NO: 7)], for which the “In vitro activity compared with comparative substance (%); IC50 of cAMP inhibition in hGLP-1R CHO cells with 0.1 nM GLP-1” value worked out at 196%.
As for B1, the “In vitro activity compared with comparative substance (%); IC50 of cAMP inhibition in hGLP-1R CHO cells with 0.1 nM GLP-1” value was determined as 19.8%.
For the molecule Ac-DVSSYLEEEAVRLFIAWLVKGGPSSGAPPPS-NH2 [GLP-1R antagonist analog (SEQ ID NO: 8)], the “In vitro activity compared with comparative substance (%); IC50 of cAMP inhibition in hGLP-1R CHO cells with 0.1 nM GLP-1” value was 238%.
The same measure, in the same setting: in the case of B2 it was 15.1%; in that of DLSSQMEEEAVRLFIEWLKNGGPSSGAPPPS (N-terminus acetylated; C-terminal amide) [GLP-1R antagonist analog (SEQ ID NO: 5)], 85%.
